Experimental data reported in patent publication US9119881B2, “Method of synergistically enhancing the therapeutic efficacy and safety of medication through a combination therapy” (priority 2010, dated 2015).
Marks after values point to notes of the source that are not given here.

Legend:
[1] = system: human aorta endothelial cells (HAECs); assay: Nitric oxide assessment in HAECs; assay type: cell-based; settings: 15 min treatment, beginning at 0.1 uM ABA
Method: (§1) Confluent human aorta endothelial cells (HAECs) were serum-starved using HBSS buffer for 30 min, then stimulated with various concentration of ABA and Forskolin (1 uM) for 5 min, after removing supernatant, cells were lysed with 0.1 M HCL to measure non-acetylated cAMP using a commercially available kit (Cayman chemical) following the manufacturer's instructions. Results (pmol/mL) were obtained from four independent experiments. For nitric oxide (NO), confluent HAECs were serum-starved for 30 min by using HBSS buffer, then treated with ABA for 15 min. Supernatant was used to measure NO using an fluorescent kit.

[2] = system: human aorta endothelial cells (HAECs); assay: Intracellular cAMP assessment in HAECs; assay type: cell-based; settings: 5 min stimulation, beginning at 0.1 uM ABA
Method: These cells were serum-starved using HBSS buffer for 30 min and then stimulated with various concentrations of abscisic acid (ABA) or Forskolin (forsk, 1 uM) for 5 minutes. After removing supernatant, cells were lysed with 0.1 M HCL to measure nonacetylated cAMP. Results (pmol/ml) from four independent experiments are depicted. Data are represented as mean±standard error.
as §1

[3] = system: retinoic acid receptor (RAR); assay: RAR luciferase reporter in transfected 3T3-L1 preadipocytes; assay type: cell-based; settings: ABA 10 μM with retinoic acid 10 μM
Method: A pCMX.L-RXR or pCMX.RAR expression plasmid and a luciferase reporter plasmid were purified using Qiagen's Maxi kit (Valencia, Calif.). 3T3-L1 preadipocytes (American Type Culture Collection, Manassas, Va.) were grown in DMEM high glucose medium (Invitrogen, Carlsbad, Calif.) containing 10% fetal bovine serum (FBS). The cells cultured in 25 cm^2 flasks were co-transfected with 0.6 ug plasmid DNA and 1 ng of pRL reporter control plasmid per well using F-2 transfection reagents (Targeting Systems, Santee, Calif.) according to the manufacturer's protocol. After 24 hours, transfected cells were split trypsin and seeded into 96-well white plates at a concentration of 20,000 cells/wells. The transfected cells were then treated with 9-cis retinoic acid (0, 10 μM; Sigma), or retinoic acid (RA, 10 μM; Sigma), with ABA (10 μM; Sigma) Transfected cells were harvested in reporter lysis reagent. Luciferase activity, normalized to pRL activity in the cell extracts was determined by using the dual luciferase reporter assay system (Promega, Madison, Wis.) in a Modulus 96-well plate reader (Turner Biosystems, Sunnyvale, Calif.). Relative luciferase activity (RLA) was calculated as a ratio of the chemiluminescence 10 seconds after the Luciferase Assay Reagent II (Promega) was added over the chemiluminescence 10 seconds after the Stop&Glo Reagent (Promega).

[4] = Dietary ABA and rosiglitazone in obese db/db mice: body and organ weights; assay type: in vivo; settings: db/db mice, ABA 100 mg/kg diet, day 60
Method: Twelve-fifteen week-old BKS.Cg-+Lepr^db/+Lepr^db/OlaHsd (db/db) mice were housed at the animal facilities at Virginia Polytechnic Institute and State University in a room maintained at 75° F., with a 12:12 h light-dark cycle starting from 6:00 AM. All experimental procedures were approved by the Institutional Animal Care and Use Committee of Virginia Polytechnic Institute and State University and met or exceeded requirements of the Public Health Service, National Institutes of Health and the Animal Welfare Act. […] Louis, Mo.) for 60 days. Mice were weighed and fasting (12 h) blood glucose levels were taken weekly. Blood glucose levels were assessed with an ACCU-CHEK® Glucometer (Roche, Indianapolis, Ind.). […] On day 60 mice were sacrificed by CO2 narcosis with secondary thoracotomy. Abdominal WAT, inguinal subcutaneous WAT, and liver were then excised and weighed. Abdominal and subcutaneous WAT were then digested and fractionated.

[5] = mice fed ABA at doses ranging from 100 to 800 mg/kg of diet [44]; cited from earlier work
[6] = Systolic blood pressure in ApoE-deficient mice; assay type: in vivo
PPAR γ = target: T1, PPAR γ (Mus musculus, UniProt P37238); assay: PPAR γ reporter activity assay in 3T3-L1 preadipocytes; assay type: cell-based; settings: 6 hrs, Ros 1 μM, ABA 10 μM
T1 construct: expressed in transfected cells; host or cells: 3T3-L1 pre-adipocytes
T1 sequence (P37238 31-505 limits assumed): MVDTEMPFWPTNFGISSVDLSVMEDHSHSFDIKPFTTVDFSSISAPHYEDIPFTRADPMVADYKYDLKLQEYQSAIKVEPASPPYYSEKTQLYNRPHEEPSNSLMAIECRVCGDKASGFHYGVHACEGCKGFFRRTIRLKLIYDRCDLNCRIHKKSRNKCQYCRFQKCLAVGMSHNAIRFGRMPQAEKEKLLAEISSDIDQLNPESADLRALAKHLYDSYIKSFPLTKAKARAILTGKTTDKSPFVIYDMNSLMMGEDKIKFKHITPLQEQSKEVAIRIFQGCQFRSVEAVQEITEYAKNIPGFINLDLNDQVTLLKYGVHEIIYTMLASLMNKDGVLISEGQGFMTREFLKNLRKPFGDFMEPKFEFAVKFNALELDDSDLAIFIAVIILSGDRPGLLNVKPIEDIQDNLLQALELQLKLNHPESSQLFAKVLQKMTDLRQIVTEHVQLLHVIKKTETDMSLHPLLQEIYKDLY
Method: For 3T3-L1 preadipocytes cells were treated for 6-h with vehicle (DMSO) or Ros (1 μM) with ABA (10 μM), the cAMP-inhibitor 2′5′ dideoxyadenosine (dideoxy, 10 μM), or 14-22 myristolated PKA inhibitor fragment (PKAi, 30 μM). […] Luciferase activity was normalized to pRL activity in the cell extracts and relative luciferase activity was calculated a ratio of the activity in the treatment wells to control wells. Data are represented as mean±standard error.
A pCMX.PPAR γ expression plasmid and a pTKPPRE3x luciferase reporter plasmid driven by the PPRE-containing Acyl-CoA oxidase promoter (kindly provided by Dr. R M. Evans, The Salk Institute, San Diego, Calif.) were purified using Qiagen's Maxi kit (Valencia, Calif.). […] Cells were co-transfected in the […] with 1.5 μg plasmid DNA and 25 ng of pRL reporter control using F-2 transfection reagents (Targeting Systems, Santee, Calif.) according to the manufacturer's protocol. […] Cells were then treated in replicates of 8 with vehicle (DMSO), rosiglitazone (1 or 10 μM; Cayman Chemicals, Arm Arbor, Mich.), or ABA (10 μM; Sigma) with and without 2′5′ dideoxyadenosine (10 μM; Sigma) and 14-22 myristolated PKA inhibitor fragment (PKAi, 30 μM; Sigma). […] Luciferase activity, normalized to pRL activity in the cell extracts was determined by using the Dual Luciferase II reporter assay system (Promega, Madison, Wis.) using a Modulus 96-well luminometer (Turner Biosystems, Sunnyvale, Calif.). All values were normalized to control wells to calculate relative luciferase activity.

For CC1=CC(=O)CC(C)(C)C1(O)/C=C/C(C)=C\C(=O)O (racemic) [ABA, abscisic acid], the nitric oxide production [1] was “significantly increased”, the “intracellular cAMP concentration” value [2] was “significantly increased” and the “activity of RAR ligands” value [3] was “synergistically enhances”. The “Ab. WAT % Body Weight” value ([4]; no rosiglitazone) was 4.7 ± 0.68^a % Body Weight, the “Sc. WAT % Body Weight” value ([4]; no rosiglitazone) was 2.8 ± 0.48 % Body Weight and the “Ab. WAT as percent body weight (in words)” value ([4]; Ros^hi) was “significantly and independently reduced”. The “inguinal SCAT weight (in words)” value ([4]; Ros^hi) was “little affect”, the side-effects [5] was “no detectable side-effects” and the systolic blood pressure [6] was “lowers”. For the same compound, the “PPAR γ activity” value (PPAR γ) was “increased”.
